The conditions of series [1]: cited from earlier work.
For series [2], the system named is TLR4. Put plainly: TLR4 signaling and expression in human ileal explant culture (LPS). It counts as cell-based. From the text: (§1) De-identified human ileal samples were collected via waiver of consent from the Office of Human Subjects Research Review Boards at Johns Hopkins University (IRB00094036), during surgery for NEC or at the time of stoma closure. For RNA isolation and qRT-PCR analysis, fresh samples were snapfrozen in liquid nitrogen immediately. For human explant culture, fresh ileum samples from NEC patients or patient undergoing stoma re-anastomosis were washed with sterile phosphate-buffered saline containing gentamycin (5 μg/mL), minced into 2- to 4-mm diameter pieces, and then cultured in Dulbecco's modified Eagle growth medium supplemented with 10% fetal bovine serum, 4 μg/mL human recombinant insulin and 100 μg/mL Primocin. Human ilea explant cultures were then pre-treated with 200 μM I3C or 20 μM A18 for 15 minutes, and then with 50 μg/mL LPS for 6 hours, then processed for total RNA isolation followed by qRT-PCR.
(§2) Total RNA was isolated using the RNeasy mini kit (Qiagen) and complementary DNA was synthesized from 0.5 μg RNA using QuantiTect Reverse Transcription kit (Qiagen) following the manufacturer's protocols. The mRNA quantification was performed on the Bio-Rad CFX96 Real-Time System (Bio-Rad) using iTaq™ universal SYBR® Green supermix (Bio-Rad) and the primers listed in Table 1. The relative mRNA expression levels were normalized against the expression of the housekeeping gene ribosomal protein lateral stalk subunit P0 (Rplp0). For microRNA isolation, freshly harvested, snap-frozen ileal tissue was subjected to total RNA isolation using the RNeasy plus universal mini kit (Qiagen) and miRNA was quantified using miScript PCR starter kit (Qiagen) following the manufacturer's protocols. The relative miRNA expression levels were normalized against the expression of housekeeping miRNA miR-191.

The subject of series [3] is AHR. Put plainly: AHR activation in IEC-6 enterocytes (Cyp1a1 expression). It counts as cell-based, rat. The conditions noted are these: A18, 6 hours. Here is the method:
The intestinal epithelial cells line IEC-6 (ATCC CRL-1592) was stably transduced with lentiviral particles containing Cignal Lenti XRE Reporter (luc) (Qiagen). Cells were treated serially with individual chemicals contained within the Johns Hopkins Drug Library (JHDL), which contains a series of FDA-approved drugs, Chong et al., 2006, (kindly provided by Dr. Jun O. Liu, Johns Hopkins University) at 10 μM for 24 hours, and the luciferase activity was quantified using the SpectraMax M3 (Molecular Devices).
as §2

The test system of another series is mouse NEC model. Put plainly: Experimental NEC in newborn mice (Example 1). Type of series: in vivo.
Series [4] relates to AHR. Put plainly: AHR activation in human ileal explant culture (Cyp1a1 qRT-PCR). Type of series: cell-based. The following applies: 200 μM I3C or 20 μM A18, 15 minutes pre-treatment then 6 hours.
Excerpt: as §1, with “Human ilea explant cultures were then pre-treated with 200 μM I3C or 20 μM A18 for 15 minutes, and then with 50 μg/mL LPS for 6 hours, then processed for total RNA isolation followed by qRT-PCR.” left out
as §2, with “The relative mRNA expression levels were normalized against the expression of the housekeeping gene ribosomal protein lateral stalk subunit P0 (Rplp0).” left out, “The relative miRNA expression levels were normalized against the expression of housekeeping miRNA miR-191.” left out

The test system of series [5] is TLR4. Put plainly: TLR4 signaling and Tlr4 expression in newborn mouse ileum in vivo (endotoxemia model, LPS). Here is the method:
Endotoxemia was induced in neonatal mouse pups (p11) by administering 5 mg/kg lipopolysaccharides (LPS) via intraperitoneal injection, and ileal samples were harvested 6 hours after LPS treatments. […] I3C and A18 were administered to the pregnant mother daily until the offspring were studied further for experimental NEC or endotoxemia as above. […] The mRNA quantification was performed on the Bio-Rad CFX96 Real-Time System (Bio-Rad) using iTaqTM universal SYBR® Green supermix (Bio-Rad) and the primers listed in Table 1. The relative mRNA expression levels were normalized against the expression of the housekeeping gene ribosomal protein lateral stalk subunit P0 (Rplp0). For microRNA isolation, freshly harvested, snap-frozen ileal tissue was subjected to total RNA isolation using the RNeasy plus universal mini kit (Qiagen) and miRNA was quantified using miScript PCR starter kit (Qiagen) following the manufacturer's protocols. The relative miRNA expression levels were normalized against the expression of housekeeping miRNA miR-191.

The test system of series [6] is AHR. Put plainly: AHR activation in mouse intestine in vivo (Cyp1a1 expression by qRT-PCR). The conditions noted are these: for Cyp1a1 expression in the intestinal epithelium: fed I3C 25 mg/kg/day or A18 300 mg/kg/day. Here is the method:
Hits were validated for activation of AHR signaling by oral gavage into neonatal C57/B16 mice (p11), and measuring the expression of the AHR activation reporter Cyp1a1 by qRT-PCR in the intestinal mucosa 24 hours later. The lead compound from these studies is herein labelled “A18”. Additionally, the mice were subjected to hypoxia (5% 02-95% N2) for 10 min in a hypoxia chamber (Billups-Rothenberg) twice daily for 4 days. […] To test the protective effect of breast milk on AHR signaling a NEC, human breast milk (Innovative Research) was supplemented to the formula at the final concentration of 5%. Endotoxemia was induced in neonatal mouse pups (p11) by administering 5 mg/kg lipopolysaccharides (LPS) via intraperitoneal injection, and ileal samples were harvested 6 hours after LPS treatments. […] I3C and A18 were administered to the pregnant mother daily until the offspring were studied further for experimental NEC or endotoxemia as above. […] The mRNA quantification was performed on the Bio-Rad CFX96 Real-Time System (Bio-Rad) using iTaqTM universal SYBR® Green supermix (Bio-Rad) and the primers listed in Table 1. The relative mRNA expression levels were normalized against the expression of the housekeeping gene ribosomal protein lateral stalk subunit P0 (Rplp0). For microRNA isolation, freshly harvested, snap-frozen ileal tissue was subjected to total RNA isolation using the RNeasy plus universal mini kit (Qiagen) and miRNA was quantified using miScript PCR starter kit (Qiagen) following the manufacturer's protocols. The relative miRNA expression levels were normalized against the expression of housekeeping miRNA miR-191.
On the technique in general: Quantitative PCR measures a nucleic acid by following its amplification.

Where [7] appears, read: A18 administered during pregnancy.
Setting [8] is: wild-type newborn mice, A18 300 mg/kg body weight/day for 4 days, oral.

For `Cc1c(OCC(F)(F)F)ccnc1C[S+]([O-])c1nc2ccccc2[nH]1` (centres unmarked) [A18, Lansoprazole], the “bound in human plasma” value in series [1] (human plasma) was “approximately 97%”. Moreover, the plasma elimination half-life result in series [1] (in humans) is recorded as “approximately 2 h”. In series [1] (in vivo), the absorption result is “rapidly absorbed”; the “metabolism by CYP3A4 and CYP2C18” value is recorded as “extensively metabolized”. Moreover, the “Tlr4 expression in human intestine ex vivo” value with TLR4 [2] (20 μM A18, LPS 50 μg/mL for 6 hours) is given as “significantly reduced”. Also, the “LPS-induced Tnf-a expression in human intestinal explant cultures” value in the series on TLR4 [2] (200 μM I3C or 20 μM A18, LPS 50 μg/mL for 6 hours) was “significantly reduced LPS-induced Tnf-a expression”. In the series with TLR4 [2] (summary statement), the “inflammation in the intestine of human resected at the time of surgery for NEC” value is “dampened inflammation”. For the same molecule, in the series with AHR [3], the “Cyp1a1 expression in IEC-6 enterocytes” value was “induced the expression of Cyp1a1”. Besides, in the series on mouse NEC model (setting [7]), the “Tlr4 expression in the neonatal gut (NEC)” value is “reduced”; the “Tnf-a expression in the neonatal gut (NEC)” value is “reduced Tnf-a”; the “histology and NEC severity” value was “improved histology and NEC severity”. For the same molecule, the “NEC severity in the offspring” value with mouse NEC model (A18 administered during pregnancy (M-A18, 300 mg/kg body weight/day)) is “significantly reduced NEC severity”. For the same molecule, the “prevention and treatment of NEC in mouse models” value in the series on mouse NEC model (summary statement) is “effectively prevented and treated NEC”. Further, the NEC severity result with mouse NEC model (wild-type mice, oral to pups during NEC induction: I3C 25 mg/kg/day, A18 300 mg/kg/day, or human breast milk 5% in formula) was “significantly reduced NEC severity”. Further, in the series with mouse NEC model (setting [8]), the NEC severity score result was “improved NEC severity score”, the “expression of I16 (NEC)” value is reported as “reduced expression of I16” and the “histology of the terminal ileum (NEC)” value is listed as “improved histology”. Besides, the “Cyp1a1 expression in human intestinal explant cultures” value in the series with AHR [4] was “significantly induced Cyp1a1 expression”. Further, the “Tlr4 expression in the intestinal mucosa / newborn ileum” value with TLR4 [5] (wild-type mice, fed I3C or A18) was “reduced Tlr4 expression”. Also, the “TLR4 (LPS)-induced 116 expression in the intestine” value in the series with TLR4 [5] (wild-type newborn mice, fed A18 (300 mg/kg/day) or oral breast milk) was “significantly reduced TLR4-induced 116 expression”. In the series on AHR [6] (A18 administered during pregnancy, 300 mg/kg body weight/day), the “Cyp1a1 expression in the offspring pup intestine” value was “induced the expression of Cyp1a1”. The “Cyp1a1 expression in the intestinal epithelium” value in the series on AHR [6] (Ahr^−/− newborn mice) is on record as “not”. Besides, the “Cyp1a1 expression in the intestinal epithelium” value with AHR [6] (wild-type newborn (p11) mice) is on record as “induced the expression of Cyp1a1”.
